# Measurements: patent publication US9464077B2, “Nitrogen-containing aromatic heterocyclic compound” (Astellas Pharma Inc., priority 2012, dated 2016)
# How the values were obtained:
# human recombinant FGFR1 = human recombinant FGFR1 (Homo sapiens, UniProt P11362); test: FGFR1 enzyme assay (LabChip EZ Reader)
# Protocol: (§2) The compound was diluted with a solution of dimethyl sulfoxide (DMSO) (10-fold common ratio, 4 portions) before dilution with a reaction buffer (100 mM HEPES (pH7.5), 0.003% Brij-35, 0.004% Tween 20, 0.5 mM DTT, and 10 mM MgCl2) so that the final DMSO concentration was 2%. To 4 μL of the compound solution in a 384-well plate, 2 μL each of FGFR1 enzyme (2 or 3 ng/μL), FGFR2 enzyme (2 ng/μL), or FGFR3 enzyme (6 ng/μL) which were diluted with the reaction buffer was added. […] After the reaction was stopped, the reaction mixture was measured with a LabChip EZ Reader. The IC50 values were calculated by non-linear regression based on the inhibition rates obtained.
# FGFR3_S249C/NIH3T3 cells = test: Growth assay of cells with forced expression of mutant FGFR3; format: cell-based; conditions: Mus musculus, NIH3T3, 120 h; 5 days after addition, CellTiter-Glo; read-out: IC50 (growth inhibition)
# Protocol: FGFR3_S249C/NIH3T3 cells were added to a 96-well spheroid plate (U bottom) at a concentration of 3000 cells/well/90 μL, and the compound solution (10 μL) was added thereto on the next day (final DMSO concentration: 0.1%). The compound solution was prepared by serially diluting the compound with DMSO at a 3-fold common ratio (9 portions and DMSO only) from the maximum concentration of 10 mM and then diluted 100-fold with a culture medium (D-MEM, 10% FBS). 5 days after the addition of the compound, the growth inhibition caused by the compound was evaluated by Promega (G7573) CellTiter-Glo™ Luminescent Cell Viability Assay.
# human recombinant FGFR3 = human recombinant FGFR3 (Homo sapiens, UniProt P22607); test: FGFR3 enzyme assay (LabChip EZ Reader)
# Protocol: as §2
# [1] = tested on: UM-UC-14 (FGFR3_S249C-positive cells, bladder cancer); test: Antitumor test on UM-UC-14 subcutaneous xenograft; format: in vivo, nude mice; conditions: oral, once a day; for inhibition in vivo at 1 mg/kg/day / Antitumor Activity, % regression: 1 mg/kg/day; for Antitumor Activity, % regression: tumor volume at Day 11 vs Day 1
# Protocol: 3×10^6 UM-UC-14 cells per 0.1 mL (PBS+matrigel, 1:1) were inoculated subcutaneously into the right flank of nude mice (CAnN, Cg-Foxn1nu/CrlCrlj (nu/nu), male, 4- to 5-week-old), and when their tumor size reached about 250 mm^3, drug administration was started (Day 1). The drug was administered once a day and the tumor size was measured with a caliper and the body weight was also measured every two or three days. The antitumor effect was finally determined based on the tumor volume (mm^3; minor axis (mm)×minor axis (mm)×major axis (mm)/2) at Day 11 (n=3-5). To the control group, 0.5% MC (methyl cellulose) was administered. […] “% regression” indicates what percentage of regression could be achieved compared with the tumor volume at Day 1. Here, the tumor volume at Day 1 means tumor volume immediately before drug administration.
# [2] = tested on: bladder cancer patient-derived cell line RT4; test: Anchorage-independent cell growth inhibition, spheroid plate; format: cell-based; conditions: Homo sapiens, 96 h, 4 days, read-out: growth inhibition rate RT4; for inhibition at 0.001 µM: 1 nM; for inhibition at 0.01 µM: 10 nM; for inhibition at 0.1 µM: 100 nM
# human recombinant FGFR2 = human recombinant FGFR2 (Homo sapiens, UniProt P21802); test: FGFR2 enzyme assay (LabChip EZ Reader)
# Protocol: as §2
# [3] = tested on: bladder cancer patient-derived cell line RT-112; test: Anchorage-independent cell growth inhibition, spheroid plate; format: cell-based; conditions: Homo sapiens, RT-112, 96 h, 4 days, read-out: growth inhibition rate RT-112
# [4] = tested on: FGFR3-BAIAP2L1-expressing NIH3T3 cells; test: as above; format: cell-based; conditions: Mus musculus, NIH3T3, 96 h, 4 days, read-out: growth inhibition rate FGFR3-BAIAP2L1-expressing NIH3T3 Cells; for inhibition at 0.001 µM: 1 nM; for inhibition at 0.01 µM: 10 nM; for inhibition at 0.1 µM: 100 nM
# Protocol: (§1) In a 96-well spheroid plate (Sumilon Celltight Spheroid 96U; Sumitomo Bakelite), FGFR3-BAIAP2L1-expressing NIH3T3 cells were seeded at 1×10^3 cells per well in D-MEM medium containing 10% fetal bovine serum. A well supplemented with only medium was also prepared for a positive control. Culturing was performed overnight in the presence of 5% CO2 at 37° C. followed by addition of test compounds (final concentrations: 100 nM, 10 nM, and 1 nM). As a negative control, DMSO used as a solvent for the compounds was added at the same concentration (0.1%) as in the case of addition of the compounds. Then, culturing was performed in the presence of 5% CO2 at 37° C. for 4 days, and a cell counting reagent (CellTiter-Glo™ Luminescent Cell Viability Assay; Promega) was added and the resulting mixture was stirred for 20 minutes followed by measurement with a luminometer.
# [5] = tested on: FGFR3-TACC3_v2 (N-FLAG) fusion polypeptide; test: In vitro kinase activity inhibition (HTRF KinEASE-TK); format: biochemical, human; conditions: 100 μM ATP
# [6] = tested on: FGFR3-TACC3_v4-expressing NIH3T3 cells; test: Anchorage-independent cell growth inhibition, spheroid plate; format: cell-based; conditions: Mus musculus, NIH3T3, 96 h, 4 days, read-out: growth inhibition rate v4; for inhibition at 0.001 µM: 1 nM; for inhibition at 0.01 µM: 10 nM; for inhibition at 0.1 µM: 100 nM
# Description: Measurement for anchorage-independent cell growth (colony method, etc.) is known to be a system for investigating the anticancer action (pharmacological effect) of compounds (Clinical Oncology, second edition, Cancer and Chemotherapy Publishers Inc.). As a method for measuring the non-adhesive growth of cells, there is the following method using a spheroid plate as referred to above in place of the colony method.
# as §1, with “Bakelite), FGFR3-TACC3_v1-expressing NIH3T3 cells, FGFR3-TACC3_v2-expressing NIH3T3 cells, FGFR3-TACC3_v3-expressing NIH3T3 cells, and FGFR3-TACC3_v4-expressing” for “Bakelite), FGFR3-BAIAP2L1-expressing”, “were each” for “were”, “D-MEM media (Invitrogen)” for “D-MEM medium”, “serum. […]” for “serum.”
# [7] = tested on: FGFR3-TACC3_v3 (N-FLAG) fusion polypeptide; test: In vitro kinase activity inhibition (HTRF KinEASE-TK); format: biochemical, human; conditions: 100 μM ATP
# [8] = tested on: FGFR3-TACC3_v1 (N-FLAG) fusion polypeptide; test: as above; format: biochemical, human; conditions: 100 μM ATP
# [9] = Mus musculus, UMUC14, 264 h, tumor volume at Day 11
# human recombinant FGFR2, sequence (P21802 22-821): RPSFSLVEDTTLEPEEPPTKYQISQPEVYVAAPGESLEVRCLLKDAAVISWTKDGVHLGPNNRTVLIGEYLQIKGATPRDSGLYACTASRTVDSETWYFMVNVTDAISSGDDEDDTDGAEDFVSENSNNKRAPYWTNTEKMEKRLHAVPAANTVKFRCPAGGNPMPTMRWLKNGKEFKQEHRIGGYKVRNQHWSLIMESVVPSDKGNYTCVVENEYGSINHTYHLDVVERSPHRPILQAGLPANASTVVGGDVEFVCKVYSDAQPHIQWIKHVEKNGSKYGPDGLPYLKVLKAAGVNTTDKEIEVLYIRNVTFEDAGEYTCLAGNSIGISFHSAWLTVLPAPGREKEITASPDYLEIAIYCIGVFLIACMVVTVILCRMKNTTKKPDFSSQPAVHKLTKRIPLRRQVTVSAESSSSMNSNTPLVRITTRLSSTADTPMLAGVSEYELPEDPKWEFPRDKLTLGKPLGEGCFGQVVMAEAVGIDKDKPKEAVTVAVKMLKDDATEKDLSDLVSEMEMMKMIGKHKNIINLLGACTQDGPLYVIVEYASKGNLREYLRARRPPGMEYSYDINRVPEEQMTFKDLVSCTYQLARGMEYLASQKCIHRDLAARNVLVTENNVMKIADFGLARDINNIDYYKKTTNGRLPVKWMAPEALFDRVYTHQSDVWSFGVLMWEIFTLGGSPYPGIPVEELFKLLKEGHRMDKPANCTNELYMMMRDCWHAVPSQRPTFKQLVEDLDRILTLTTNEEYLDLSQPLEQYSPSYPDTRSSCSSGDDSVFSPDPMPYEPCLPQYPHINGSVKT
# human recombinant FGFR1, sequence (P11362 22-822): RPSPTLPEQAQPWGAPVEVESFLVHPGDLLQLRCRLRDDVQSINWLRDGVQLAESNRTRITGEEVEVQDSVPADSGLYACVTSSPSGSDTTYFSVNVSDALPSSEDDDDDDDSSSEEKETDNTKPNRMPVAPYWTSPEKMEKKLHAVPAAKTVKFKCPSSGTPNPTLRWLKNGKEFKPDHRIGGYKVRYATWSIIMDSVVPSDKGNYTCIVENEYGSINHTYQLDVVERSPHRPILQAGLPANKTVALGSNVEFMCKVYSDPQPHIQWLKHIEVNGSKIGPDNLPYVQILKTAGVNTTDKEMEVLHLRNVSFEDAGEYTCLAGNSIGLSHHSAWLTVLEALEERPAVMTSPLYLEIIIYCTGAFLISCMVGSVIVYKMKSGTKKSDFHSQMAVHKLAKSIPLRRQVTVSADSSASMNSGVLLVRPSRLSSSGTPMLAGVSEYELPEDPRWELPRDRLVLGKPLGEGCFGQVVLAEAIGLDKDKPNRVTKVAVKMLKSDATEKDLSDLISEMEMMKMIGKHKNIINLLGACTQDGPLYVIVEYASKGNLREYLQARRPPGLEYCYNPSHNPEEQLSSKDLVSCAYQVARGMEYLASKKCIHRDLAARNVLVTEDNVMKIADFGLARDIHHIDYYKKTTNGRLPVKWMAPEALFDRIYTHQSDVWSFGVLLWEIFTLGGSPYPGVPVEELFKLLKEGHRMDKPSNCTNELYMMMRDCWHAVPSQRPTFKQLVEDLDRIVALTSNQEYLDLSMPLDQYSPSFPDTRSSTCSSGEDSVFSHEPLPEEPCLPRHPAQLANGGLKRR
# human recombinant FGFR3, sequence (P22607 23-806): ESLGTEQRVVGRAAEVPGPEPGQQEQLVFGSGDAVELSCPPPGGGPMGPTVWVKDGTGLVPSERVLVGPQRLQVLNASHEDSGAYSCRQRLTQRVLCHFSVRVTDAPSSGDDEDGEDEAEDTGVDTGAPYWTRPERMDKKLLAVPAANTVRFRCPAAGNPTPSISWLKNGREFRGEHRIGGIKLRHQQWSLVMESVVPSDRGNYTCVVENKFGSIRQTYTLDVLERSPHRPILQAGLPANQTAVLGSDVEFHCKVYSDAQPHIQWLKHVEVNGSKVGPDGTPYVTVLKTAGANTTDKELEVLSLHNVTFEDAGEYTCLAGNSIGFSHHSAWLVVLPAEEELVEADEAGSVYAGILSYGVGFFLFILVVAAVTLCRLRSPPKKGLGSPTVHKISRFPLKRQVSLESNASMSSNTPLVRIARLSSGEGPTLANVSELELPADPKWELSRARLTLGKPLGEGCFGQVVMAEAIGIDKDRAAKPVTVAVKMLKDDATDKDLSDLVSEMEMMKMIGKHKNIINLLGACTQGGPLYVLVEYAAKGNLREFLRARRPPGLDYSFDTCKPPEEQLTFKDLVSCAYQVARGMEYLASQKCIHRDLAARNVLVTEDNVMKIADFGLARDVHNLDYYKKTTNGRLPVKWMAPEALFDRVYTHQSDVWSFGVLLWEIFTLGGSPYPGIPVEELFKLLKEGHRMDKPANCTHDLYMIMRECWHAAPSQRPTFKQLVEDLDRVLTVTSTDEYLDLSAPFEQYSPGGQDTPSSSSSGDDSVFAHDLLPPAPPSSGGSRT
smiles,measurement,setting,value
COc1cc(Nc2ncc(CCc3c(F)c(OC)cc(OC)c3F)cn2)ccc1N1CCN(C)CC1 [Ex 7],IC50,human recombinant FGFR1,2 nM
COc1cc(OC)c(F)c(COc2cnc(Nc3cnn(C[C@H](O)CO)c3)nc2)c1F [Ex 11],IC50,FGFR3_S249C/NIH3T3 cells,13 nM
same,IC50,human recombinant FGFR3,2 nM
same,IC50,human recombinant FGFR1,1 nM
COc1cc(OC)c(F)c(CCc2cnc(Nc3ccc(N4CCC(N5CCN(C)CC5)CC4)c(F)c3)nc2)c1F [Example 33],IC50,FGFR3_S249C/NIH3T3 cells,26 nM
same,IC50,human recombinant FGFR3,2 nM
same,inhibition in vivo at 1 mg/kg/day,[1]; [9],70%
same,IC50,human recombinant FGFR1,2 nM
COc1cc(Nc2ncc(OCc3c(F)c(OC)cc(OC)c3F)cn2)ccc1N1CCC(N2CCN(C)CC2)CC1 [Example 56],inhibition at 0.001 µM,[2],5%
same,inhibition at 0.01 µM,[2],42%
same,inhibition at 0.1 µM,[2],64%
same,IC50,human recombinant FGFR2,2 nM
same,inhibition at 0.001 µM,[3]; 1 nM,29%
same,inhibition at 0.01 µM,[3]; 10 nM,83%
same,inhibition at 0.1 µM,[3]; 100 nM,90%
same,IC50,human recombinant FGFR1,2 nM
COc1cc(Nc2ncc(OCc3c(F)c(OC)cc(OC)c3F)cn2)ccc1N1CCN(C)CC1 [Example 57],IC50,human recombinant FGFR1,1 nM
COc1cc(OC)c(Cl)c(COc2cnc(Nc3cnn(C4CCN(C)CC4)c3)nc2)c1Cl [Example 71],IC50,FGFR3_S249C/NIH3T3 cells,10 nM
same,IC50,human recombinant FGFR3,2 nM
same,inhibition in vivo at 1 mg/kg/day,[1]; [9],50%
same,IC50,human recombinant FGFR1,2 nM
COc1cc(OC)c(Cl)c(COc2cnc(Nc3cnn(C4CCNCC4)c3)nc2)c1Cl [Example 72],IC50,FGFR3_S249C/NIH3T3 cells,24 nM
same,IC50,human recombinant FGFR2,2 nM
same,IC50,human recombinant FGFR3,2 nM
same,inhibition in vivo at 1 mg/kg/day,[1]; [9],30%
COc1cc(Nc2ncc(OCc3c(F)c(OC)cc(OC)c3F)cn2)ccc1N1CCN(C2CCN(C)CC2)CC1 [Example 84],IC50,FGFR3_S249C/NIH3T3 cells,16 nM
same,IC50,human recombinant FGFR2,2 nM
same,IC50,human recombinant FGFR3,1 nM
same,"Antitumor Activity, % regression",[1],34%
same,IC50,human recombinant FGFR1,2 nM
COc1cc(Nc2ncc(OCc3c(F)c(OC)cc(OC)c3F)cn2)ccc1N1C[C@@H](C)N[C@@H](C)C1 [Example 92],IC50,FGFR3_S249C/NIH3T3 cells,7 nM
same,IC50,human recombinant FGFR2,2 nM
same,IC50,human recombinant FGFR3,1 nM
same,inhibition in vivo at 1 mg/kg/day,[1]; [9],49%
COc1cc(Nc2ncc(OCc3c(F)c(OC)cc(OC)c3F)cn2)ccc1N1CCC2(CCNCC2)CC1 [Example 95],IC50,FGFR3_S249C/NIH3T3 cells,57 nM
same,IC50,human recombinant FGFR3,2 nM
same,inhibition in vivo at 3 mg/kg/day,"[1]; Mus musculus, UMUC14, 264 h, 3 mg/kg/day, tumor volume at Day 11",97%
COc1cc(OC)c(F)c(COc2cnc(Nc3cnn(CCN4CCN(C)CC4)c3)nc2)c1F [Example 114],IC50,FGFR3_S249C/NIH3T3 cells,7 nM
same,IC50,human recombinant FGFR3,1 nM
same,"Antitumor Activity, % regression",[1],33%
same,IC50,human recombinant FGFR1,2 nM
COc1cc(OC)c(F)c(COc2cnc(Nc3cnn(CC(=O)N4CC(O)C4)c3)nc2)c1F [Example 115],IC50,FGFR3_S249C/NIH3T3 cells,36 nM
same,IC50,human recombinant FGFR3,2 nM
same,inhibition in vivo at 1 mg/kg/day,[1]; [9],70%
same,IC50,human recombinant FGFR1,2 nM
COc1cc(OC)c(F)c(COc2cnc(Nc3cnn(C[C@@H](O)CO)c3)nc2)c1F [Example 116],inhibition at 0.001 µM,[4],15%
same,inhibition at 0.01 µM,[4],74%
same,inhibition at 0.001 µM,[2],8%
same,inhibition at 0.01 µM,[2],39%
same,inhibition at 0.1 µM,[2],63%
same,rate of inhibiting kinase activity v2,[5]; 1 nM,22%
same,rate of inhibiting kinase activity v2,[5]; 10 nM,73%
same,rate of inhibiting kinase activity v2,[5]; 100 nM,95%
same,IC50,FGFR3_S249C/NIH3T3 cells,8 nM
same,inhibition at 0.001 µM,[6],11%
same,inhibition at 0.01 µM,[6],70%
same,rate of inhibiting kinase activity v3,[7]; 1 nM,41%
same,rate of inhibiting kinase activity v3,[7]; 100 nM,96%
same,IC50,human recombinant FGFR3,2 nM
same,rate of inhibiting kinase activity v1,[8]; 10 nM,79%
same,rate of inhibiting kinase activity v1,[8]; 100 nM,95%
same,"Antitumor Activity, % regression",[1],54%
same,IC50,human recombinant FGFR1,1 nM
COc1cc(OC)c(F)c(COc2cnc(Nc3ccc(N4CCN(C)CC4)cc3)nc2)c1F [Example 122],inhibition at 0.001 µM,[4],17%
same,inhibition at 0.01 µM,[4],83%
same,inhibition at 0.1 µM,[4],90%
same,inhibition at 0.001 µM,[2],6%
same,inhibition at 0.01 µM,[2],43%
same,inhibition at 0.1 µM,[2],63%
same,rate of inhibiting kinase activity v2,[5]; 1 nM,27%
same,rate of inhibiting kinase activity v2,[5]; 10 nM,80%
same,rate of inhibiting kinase activity v2,[5]; 100 nM,95%
same,IC50,FGFR3_S249C/NIH3T3 cells,7 nM
same,IC50,human recombinant FGFR2,2 nM
same,inhibition at 0.001 µM,[6],19%
same,inhibition at 0.01 µM,[6],82%
same,inhibition at 0.1 µM,[6],89%
same,rate of inhibiting kinase activity v3,[7]; 1 nM,45%
same,rate of inhibiting kinase activity v3,[7]; 10 nM,85%
same,rate of inhibiting kinase activity v3,[7]; 100 nM,97%
same,IC50,human recombinant FGFR3,2 nM
same,rate of inhibiting kinase activity v1,[8]; 1 nM,34%
same,rate of inhibiting kinase activity v1,[8]; 10 nM,80%
same,rate of inhibiting kinase activity v1,[8]; 100 nM,94%
same,"Antitumor Activity, % regression",[1],15%
COc1cc(OC)c(F)c(COc2cnc(Nc3cc(CN4CCN(C)CC4)n(C)n3)nc2)c1F [Example 248],inhibition at 0.001 µM,[4],-3%
same,inhibition at 0.01 µM,[4],19%
same,inhibition at 0.1 µM,[4],82%
same,inhibition at 0.001 µM,[2],3%
same,inhibition at 0.01 µM,[2],10%
same,inhibition at 0.1 µM,[2],43%
same,rate of inhibiting kinase activity v2,[5]; 1 nM,6%
same,rate of inhibiting kinase activity v2,[5]; 10 nM,25%
same,rate of inhibiting kinase activity v2,[5]; 100 nM,78%
same,IC50,FGFR3_S249C/NIH3T3 cells,50 nM
same,inhibition at 0.001 µM,[6],-5%
same,inhibition at 0.01 µM,[6],26%
same,inhibition at 0.1 µM,[6],83%
same,rate of inhibiting kinase activity v3,[7]; 1 nM,30%
same,rate of inhibiting kinase activity v3,[7]; 10 nM,55%
same,rate of inhibiting kinase activity v3,[7]; 100 nM,91%
same,IC50,human recombinant FGFR3,5 nM
same,rate of inhibiting kinase activity v1,[8]; 1 nM,7%
same,rate of inhibiting kinase activity v1,[8]; 10 nM,40%
same,rate of inhibiting kinase activity v1,[8]; 100 nM,86%
same,inhibition in vivo at 1 mg/kg/day,[1]; [9],95%
same,IC50,human recombinant FGFR1,4 nM
